Assay results reported in patent US6444617B1, “Fused-heterocycle dicarboxylic acid diamide derivatives or salts thereof, herbicide and usage thereof” (Nihon Nohyaku Co., Ltd., priority 1998, dated 2002).

Columns and labels:
Format in all cases: in vivo
[1] = tested on: bird's eye speedwell (Veronica persica Poir.), Vp; assay: Test Example 4: herbicidal effect on upland weeds after emergence; settings: dosage 5 kg/ha; sprayed after emergence; judged 14 days after treatment
Description: (§1) Herbicidal Effect on Upland Weeds After Emergence Polyethylene-made vats having a size of 10 cm (length)×20 cm (width)×5 cm (height) were filled with soil, sown with seeds of the following noxious upland weeds and with seeds of soybean plant and wheat as upland crop plants, and then covered with soil. The plants were made to grow up until they reached the leaf-stages mentioned below, after which an agent comprising a prescribed concentration of a compound of the present invention (listed in Tables 1 to 14) as active ingredient was sprayed. Fourteen days after the treatment, the herbicidal effect was investigated, from which weed-killing rate was calculated in the same manner as in Test Example 1 and the results were judged. […] Sample weeds, their leaf stages, and leaf stages of soybean plant and wheat were as follows: [table]

[2] = tested on: barnyard grass (Echinochloa crus-galli Beauv.), Ec; assay: as above; settings: dosage 5 kg/ha; sprayed after emergence; judged 14 days after treatment
Description: as §1

[3] = tested on: velvetleaf (Abutilon theophtasti L.), At; assay: as above; settings: dosage 5 kg/ha; sprayed after emergence; judged 14 days after treatment
Description: as §1

[4] = tested on: cocklebur (Xanthium strumarium L.), Xs; assay: as above; settings: dosage 5 kg/ha; sprayed after emergence; judged 14 days after treatment
Description: as §1

[5] = tested on: forxtail grass (Alopecurus aequalis var. amurensis Ohwi), Am; assay: as above; settings: dosage 5 kg/ha; sprayed after emergence; judged 14 days after treatment
Description: as §1

[6] = tested on: cleavers (Galium aparine L.), Ga; assay: as above; settings: dosage 5 kg/ha; sprayed after emergence; judged 14 days after treatment
Description: as §1

[7] = tested on: bulrush (Scirpus juncoides Roxb.); assay: Test Example 1: herbicidal effect on paddy field weeds before emergence; settings: Dosage 5 kg/ha
Method: (§2) Test for Herbicidal Effect on Paddy Field Weeds Before Emergence Soil was filled into 1/10000 are pots and brought into a state of paddy field, in which seeds of barnyard grass (Echinochloa crus-galli Beauv.) and bulrush (Scirpus juncoides Roxb.) were made to be before germination. The soil in the pots were treated with a solution containing a predetermined dosage of a chemical agent comprising a compound of the present invention listed in Tables 1 to 14. Twenty one days after the treatment, the herbicidal effect was investigated, the result was compared with that in untreated plot to calculate the weed-controlling rate, and the herbicidal effect was judged according to the following criterion: […]

[8] = tested on: barnyard grass (Echinochloa crus-galli Beauv.); assay: as above; settings: Dosage 5 kg/ha
Method: as §2

[9] = tested on: bird's eye speedwell (Veronica persica Poir.), Vp; assay: Test Example 3: herbicidal effect on upland weeds before emergence; settings: dosage 5 kg/ha
Method: (§3) Herbicidal Effect on Upland Weeds Before Emergence […] Then, a liquid preparation of an agent comprising a prescribed concentration of a compound of the present invention (the compounds listed in Tables 1-14) as active ingredient was sprayed. Fourteen days after the treatment, the herbicidal effect was investigated, from which weed-killing rate was calculated in the same manner as in Test Example 1, and the herbicidal effect was judged.

[10] = tested on: barnyard grass (Echinochloa crus-galli Beauv.), Ec; assay: as above; settings: dosage 5 kg/ha
Method: as §3

[11] = tested on: velvetleaf (Abutilon theophtasti L.), At; assay: as above; settings: dosage 5 kg/ha
Method: as §3

[12] = tested on: cocklebur (Xanthium strumarium L.), Xs; assay: as above; settings: dosage 5 kg/ha
Method: as §3

[13] = tested on: forxtail grass (Alopecurus aequalis var. amurensis Ohwi), Am; assay: as above; settings: foxtail grass, dosage 5 kg/ha
Method: as §3

[14] = tested on: cleavers (Galium aparine L.), Ga; assay: as above; settings: dosage 5 kg/ha
Method: as §3

[15] = tested on: bulrush (Scirpus juncoides Roxb.); assay: Test Example 2: herbicidal effect on paddy field weeds after emergence; settings: Dosage 5 kg/ha; one-leaved stage; 21 days after treatment
Method: (§4) Test for Herbicidal Effect on Paddy Field Weeds After Emergence. Soil was filled into 1/10000 are pots and brought into a state of paddy field, in which seeds of barnyard grass (Echinochloa crus-galli Beauv.), bulrush (Scirpus juncoides Roxb.) and monochoria (Monochoria vaginalis Presl) were made to reach one-leaved stage. The soil in the pots were treated with a solution containing a predetermined dosage of a chemical agent comprising a compound of the present invention listed in Tables 1 to 14. Twenty one days after the treatment, the herbicidal effect was investigated and the result was compared with that in untreated plot to calculate the weed-controlling rate, and the herbicidal effect was judged according to the same criterion as in Test Example 1.

[16] = tested on: barnyard grass (Echinochloa crus-galli Beauv.); assay: as above; settings: Dosage 5 kg/ha; one-leaved stage; 21 days after treatment
Method: as §4

[17] = tested on: monochoria (Monochoria vaginalis Presl); assay: as above; settings: Dosage 5 kg/ha; one-leaved stage; 21 days after treatment
Method: as §4

wheat (Wh) = assay: Test Example 3: phytotoxicity to upland crop plants, treatment before emergence; settings: dosage 5 kg/ha
Method: (§5) Herbicidal Effect on Upland Weeds Before Emergence […] Then, a liquid preparation of an agent comprising a prescribed concentration of a compound of the present invention (the compounds listed in Tables 1-14) as active ingredient was sprayed. Fourteen days after the treatment, the herbicidal effect was investigated, from which weed-killing rate was calculated in the same manner as in Test Example 1, and the herbicidal effect was judged. At the same time, phytotoxicity to soybean plant and wheat was investigated and judged according to the criterion mentioned below.

soybean plant (So) = assay: as above; settings: dosage 5 kg/ha
Method: as §5

wheat = assay: Test Example 4: phytotoxicity to upland crop plants, treatment after emergence; settings: dosage 5 kg/ha, sprayed after emergence, judged 14 days after treatment
Description: as §1

soybean plant = assay: as above; settings: dosage 5 kg/ha, sprayed after emergence, judged 14 days after treatment
Description: as §1

| Compound | Herbicidal effect Vp [1] | Herbicidal effect Ec [2] | Herbicidal effect At [3] | Herbicidal effect Xs [4] | Herbicidal effect Am [5] | Herbicidal effect Ga [6] | Pre-emergence treatment Bulrush (herbicidal effect) [7] | Pre-emergence treatment Barnyard grass (herbicidal effect) [8] | Herbicidal effect Vp [9] | Herbicidal effect Ec [10] | Herbicidal effect At [11] | Herbicidal effect Xs [12] | Herbicidal effect Am [13] | Herbicidal effect Ga [14] | Post-emergence treatment Bulrush (herbicidal effect) [15] | Post-emergence treatment Barnyard grass (herbicidal effect) [16] | Post-emergence treatment Monochoria (herbicidal effect) [17] | Phytotoxicity Wh (wheat (Wh)) | Phytotoxicity So (soybean plant (So)) | Phytotoxicity Wh (wheat) | other results |
| --- | --- | --- | --- | --- | --- | --- | --- | --- | --- | --- | --- | --- | --- | --- | --- | --- | --- | --- | --- | --- | --- |
| CCc1ccc(Cl)c(CC)c1NC(=O)c1cc2ccccc2nc1C(=O)NCC(C)(C)C [359-5] | 5 (Weed-killing rate is 100%.) | 5 (Weed-killing rate is 100%.) | 5 (Weed-killing rate is 100%.) | 5 (Weed-killing rate is 100%.) | 5 (Weed-killing rate is 100%.) | 5 (Weed-killing rate is 100%.) | 5 (Weed-killing rate is 100%.) | 5 (Weed-killing rate is 100%.) | 5 (Weed-killing rate is 100%.) | 5 (Weed-killing rate is 100%.) | 5 (Weed-killing rate is 100%.) | 5 (Weed-killing rate is 100%.) | 5 (Weed-killing rate is 100%.) | 5 (Weed-killing rate is 100%.) | 5 (Weed-killing rate is 100%.) | 5 (Weed-killing rate is 100%.) | 5 (Weed-killing rate is 100%.) | 0 (Crop-killing rate is 0-20% (No Phytotoxicity).) | 0 (Crop-killing rate is 0-20% (No Phytotoxicity).) | 3 (Crop-killing rate is 70-89%.) | Phytotoxicity So (soybean plant): 2 (Crop-killing rate is 40-69%.) |
| CCc1ccc(Cl)c(CC)c1NC(=O)c1cc2ccccc2nc1C(=O)NC1CCCC1 [359-6] | 5 (Weed-killing rate is 100%.) | 5 (Weed-killing rate is 100%.) | 5 (Weed-killing rate is 100%.) | 5 (Weed-killing rate is 100%.) | 5 (Weed-killing rate is 100%.) | 5 (Weed-killing rate is 100%.) | 5 (Weed-killing rate is 100%.) | 5 (Weed-killing rate is 100%.) | 5 (Weed-killing rate is 100%.) | 5 (Weed-killing rate is 100%.) | 5 (Weed-killing rate is 100%.) | 5 (Weed-killing rate is 100%.) | 5 (Weed-killing rate is 100%.) | 5 (Weed-killing rate is 100%.) | 5 (Weed-killing rate is 100%.) | 5 (Weed-killing rate is 100%.) | 5 (Weed-killing rate is 100%.) | 0 (Crop-killing rate is 0-20% (No Phytotoxicity).) | 0 (Crop-killing rate is 0-20% (No Phytotoxicity).) | 2 (Crop-killing rate is 40-69%.) | Phytotoxicity So (soybean plant): 3 (Crop-killing rate is 70-89%.) |
| CCCNC(=O)c1nc2cc(F)ccc2cc1C(=O)Nc1c(CC)ccc(Cl)c1CC [Compound No. 158, 3-(3-Chloro-2,6-diethylphenyl)-aminocarbonyl-7-fluoro-2-quinolinecarboxylic Acid n-Propylamide] | 5 (Weed-killing rate is 100%.) | 5 (Weed-killing rate is 100%.) | 5 (Weed-killing rate is 100%.) | 4 (Weed-killing rate is 90-99%.) | 4 (Weed-killing rate is 90-99%.) | 5 (Weed-killing rate is 100%.) | 5 (Weed-killing rate is 100%.) | 5 (Weed-killing rate is 100%.) | 5 (Weed-killing rate is 100%.) | 5 (Weed-killing rate is 100%.) | 5 (Weed-killing rate is 100%.) | 4 (Weed-killing rate is 90-99%.) | 4 (Weed-killing rate is 90-99%.) | 5 (Weed-killing rate is 100%.) | 5 (Weed-killing rate is 100%.) | 5 (Weed-killing rate is 100%.) | 5 (Weed-killing rate is 100%.) | 4 (Crop-killing rate is 90-99%.) | 1 (Crop-killing rate is 1-39%.) | 4 (Crop-killing rate is 90-99%.) | Phytotoxicity So (soybean plant): 2 (Crop-killing rate is 40-69%.) |
| CCNC(=O)c1nc2ncccc2cc1C(=O)Nc1c(CC)ccc(Cl)c1CC [Compound No. 360, 3-(3-Chloro-2,6-diethylphenyl)-aminocarbonyl-1,8-naphthylidine-2-carboxylic Acid Ethylamide] | 5 (Weed-killing rate is 100%.) | 5 (Weed-killing rate is 100%.) | 5 (Weed-killing rate is 100%.) | 5 (Weed-killing rate is 100%.) | 5 (Weed-killing rate is 100%.) | 4 (Weed-killing rate is 90-99%.) | 5 (Weed-killing rate is 100%.) | 5 (Weed-killing rate is 100%.) | 5 (Weed-killing rate is 100%.) | 5 (Weed-killing rate is 100%.) | 5 (Weed-killing rate is 100%.) | 5 (Weed-killing rate is 100%.) | 5 (Weed-killing rate is 100%.) | 5 (Weed-killing rate is 100%.) | 5 (Weed-killing rate is 100%.) | 5 (Weed-killing rate is 100%.) | 5 (Weed-killing rate is 100%.) | 4 (Crop-killing rate is 90-99%.) | 3 (Crop-killing rate is 70-89%.) | 4 (Crop-killing rate is 90-99%.) | Phytotoxicity So (soybean plant): 3 (Crop-killing rate is 70-89%.) |
